Reference: patent publication US20090068286A1, “METHOD OF TREATING CANCER BY ADMINISTRATION OF 5-SUBSTITUTED NUCLEOSIDES” (RESprotect, GmbH, priority 2007, published 2009)

Tests used:
AH13r tumor cells = test: Hoechst 33258/propidium iodide (Hopi) double coloration for apoptosis; type: cell-based, rat; conditions: cytostatic
Description: The indication that the reduction in cell number is based on apoptosis, was detected by means of Hoechst 33258/propidium iodide (Hopi) double coloration.

[1] = Plasma concentrations of BVDU, BVU and GEM in patients of the dose finding study (HPLC); type: in vivo, human
Procedure: Dose finding study: 22 Patients with advanced pancreatic adenocarcinoma were eligible for treatment in this single arm study. The mean age was 60 years and 73% of patients were males. One patient without progressive disease was excluded from the study for withdrawal of consent after the first cycle. Of the 21 patients left, 15 were in stage IV and 6 in stage III. BVDU was administered in a combination with GEM. On day 1, on day 8 and on day 15 of each 28-day cycle, BVDU was given together with GEM. On days 2-4, on days 8-11, and on days 15-18 of a 28-day cycle, BVDU was given alone in the recovery phase.
The starting dose of BVDU was 4×125 mg/day (total dose of 6,000 mg per treatment cycle) together with a fixed dose of GEM (1,000 mg/M^2). Subsequent total doses of BVDU per cycle were 7,500 mg, 9,000 mg, 10,500 mg, and 12,000 mg again in four patients per cohort. Dosage levels were administered as follows: First dose level: The starting dose of BVDU was 4×125 mg daily given at approximately 08:00 a.m. (1×125 mg BVDU), 12:00 a.m. (1×125 mg BVDU), 04:00 p.m. (1×125 mg BVDU), and 08:00 p.m. (1×125 mg BVDU). These doses were administered on days 1 to 4, days 8 to 11 and days 15 to 18; Second dose level: 1×250 mg+3×125 mg daily; Third dose level. 2×250 mg+2×125 mg daily; Forth dose level: 3×250 mg+1×125 mg daily; and, Fifth dose level: 4×250 mg daily.
Approximately 1 hour after the 08:00 a.m. BVDU-administration on day 1, day 8 and day 15 of a cycle, the GEM infusion started and GEM was infused for 30 minutes.
Analysis of the concentrations of GEM and BVDU (BVDU) as well as analysis of the concentrations of BVU ((E)-5-(2-bromovinyl)uracil, degradation product of BVDU) in plasma samples: 0.5 ml of plasma spiked with about 0.5 μg of 4-Propyl-2-thiouracil (PTU) as internal standard was extracted with 2.5 ml of methanol-acetonitrile (v/v, 1:9) by vigorous mixing for about 1 min. After centrifugation the supernatant was transferred to a beaker and evaporated to dryness at 50° C. under a gentle stream of nitrogen. The residue was dissolved in 1 ml of the solution used as mobile phase by 10 min treatment in an ultrasonic bath. After centrifugation the clear supernatant was used for HPLC-analysis. The concentrations of GEM and BVDU were calculated using a calibration curve with the respective standard substances. The concentrations of BVU were calculated using the calibration curve of BVDU and the determined response factor. Limits of detection: BVDU 20 ng/ml plasma; GEM 30 ng/ml plasma. Limits of quantification: BVDU 60 ng/ml plasma; GEM 100 ng/ml plasma.
Pharmacokinetic Results BVDU: All measurements were performed within 9 hours. Therefore, only the first three intakes of BVDU-tablets were relevant in this context, and as consequence, in dose groups four and five the intake of tablets was identical. When the dose was doubled from 125 mg to 250 mg, the mean maximum BVDU concentration in plasma increased fivefold from 290 (±152) ng/ml to 1549 (±1058) ng/ml (FIG. 10).

[2] = test system: advanced pancreatic cancer; conditions: pivotal study, Glimelius et al. 1996; cited from earlier work
pancreatic cancer = pancreatic cancer patients; cited from earlier work
[3] = test system: dimethybenzanthracene (DMBA) induced tumors; test: Growth of DMBA-induced tumors in SD rats under DOX ± BVDU; type: in vivo, rat; conditions: DOX 1 mg/kg
Procedure: (§1) The reduction in toxic side effects of doxorubicin (DOX) was able to be shown in the test with rats (see Table 3). SD rats were treated with dimethybenzanthracene (DMBA). […] During the treatment and one day after each treatment, i.e. in the recovery phase, the animals obtained respectively 15 mg/kg BVDU. The recovery phase in vivo was 6× one day.

[4] = Animal weight of DOX ± BVDU treated rats (toxic side effects); type: in vivo, rat
Procedure: DT-D inactivates ROS and thus protects cells from non-specific ROS and electrophilic attacks. […] DOX treatment alone leads to weight losses because of the toxic side effects. It is certain that only the side effects (possibly the cardiotoxicity characteristic of DOX) are reduced by BVDU but not the toxic effects on the tumor.
as §1

[5] = DMBA-induced tumors, BVDU 15 mg/kg, average of 5-8 rats
[6] = SD rats, DOX 1 mg/kg, BVDU 15 mg/kg, average of 5-8 rats

With O=C1c2c(O)ccc(O)c2C(=O)c2c(NCCNCCO)ccc(NCCNCCO)c21 [MXA, mitoxantrone] the “Apoptosis (HOPI double coloration)” value (AH13r tumor cells) was “initiate apoptosis”.
With O=c1[nH]cc(/C=C/Br)c(=O)[nH]1 [BVU, (E)-5-(2-bromovinyl)uracil] the “Mean maximum BVU concentration” value ([1]; lower end of the BVDU dose range ("from")) was 1525 (±1012) ng/ml and the “Mean maximum BVU concentration” value ([1]; upper end of the BVDU dose range ("to")) was 4637 (±1353) ng/ml.
For Nc1ccn([C@@H]2O[C@H](CO)[C@@H](O)C2(F)F)c(=O)n1 [GEM, gemcitabine], the Median survival [2] is given as “less than 6 months”, the “GEM maximum values with increase of the BVDU dose” value ([1]; BVDU 125 vs 250 mg, large variability between individual patients) is given as “appear to rise” and the “GEM detectability in plasma” value ([1]; at the second BVDU intake, 4 hours later) is given as “not detectable any more”. The Diarrhea (pancreatic cancer) was 2%, the One-year survival (pancreatic cancer) was 17% and the Overall survival (pancreatic cancer) was 5.9 months. The Skin rash (pancreatic cancer) was 1% and the Time to progression (pancreatic cancer) was 3.55 months.
With CO[C@@]12[C@H](COC(N)=O)C3=C(C(=O)C(C)=C(N)C3=O)N1C[C@@H]1N[C@@H]12 [MMC, mitomycin C] the “Apoptosis (HOPI double coloration)” value (AH13r tumor cells) was “initiate apoptosis”.
With COc1cccc2c1C(=O)c1c(O)c3c(c(O)c1C2=O)C[C@@](O)(C(=O)CO)C[C@@H]3O[C@H]1C[C@H](N)[C@H](O)[C@H](C)O1 [DOX, doxorubicin] the “Relative tumor size Day 1” value [3, 5] was 1, the “Relative tumor size Day 16” value [3, 5] was 1.5 and the “Growth of DMBA-induced tumors” value [3] was “inhibited in their growth”. The “Relative animal weight Day 1” value [4, 6] was 0, the “Relative animal weight Day 16” value [4, 6] was −7% and the “Animal weight change as index of toxic side effects” value ([4]; rat, in vivo) was “weight losses”. The “Apoptosis (HOPI double coloration)” value (AH13r tumor cells) was “initiate apoptosis”.
